Experimental data: US20030059421A1, “DNA encoding the baboon and cynomolgus macaque prostoglandin E2 receptor EP4 subtype” (Pfizer Inc., priority 2001, published 2003)

Assays:
[1] = biological target: T1, baboon prostaglandin receptor EP4 (baEP4) (Papio cynocephalus, UniProt Q7JGJ7); test: Competition binding with 3H-PGE2 on CHO-K1 cells transiently transfected with baboon EP4; conditions: for IC50: baEP4 transfected CHO-K1 whole cells, 3 nM 3H-PGE2, 1 hr on ice, read-out: IC50, displacement of 3H-PGE2 binding
Description: Following washing and solubilization of the cells, specific binding was determined by scintillation counting.
(§5) To test the binding and signaling characteristics of this putative ba/cynEP4 receptor, DNA fragments containing the entire open reading frames of each baboon and cynomolgus macaque were separately transiently transfected into CHO—K1 cells.
The day prior to transfection, CHO—K1 cells were plated in 100 mm dishes (Corning, Corning, N.Y.) at 6×10^4 cells/cm^2 in DMEM/F12 (Life Technologies) supplemented with 10% fetal calf serum (FCS; Gemini Bio-Products, Calabasas, Calif.). The next day, each plate of cells was transfected with 15 g of either baboon or cynomolgus macaque EP4-pCR3.1-Uni plasmid DNA using Lipofectamine 2000 reagent (Life Technologies) according to the manufacturer's protocol. Briefly, 45 l of Lipofectamine 2000 reagent was diluted into 1.5 ml of D-MEM/F12 without serum and incubated at room temperature for 5 minutes. During this time, 15 g of either baboon or cynomolgus macaque EP4-pCR3.1-Uni plasmid DNA was diluted into 0.5 ml of D-MEM/F12 without serum. The diluted Lipofectamine 2000 reagent and the DNA were then mixed and incubated an additional 20 minutes at room temperature. 8 ml D-MEM/F12 without serum was then added to each reaction and carefully added to a plate of CHO cell previously rinsed with serum free D-MEM/F12. These cells were then incubated at 37° C. with 5% CO2 for 6 hr at which time 1 ml FCS was added per plate and the incubation continued at 37° C. with 5% CO2 overnight. The following day, the cells were split to either 24-well or 96-well dishes for use in ligand binding and/or secondary signaling analyses.
CHO cells transiently transfected with the baboon EP4 or cynomolgus macaque EP4 receptor were plated at 60,000 cells/well in 24-well tissue-culture dishes (Corning, Corning, N.Y.) and allowed to grow for 48 hours. […] Unbound radioligand was removed by extensive washing, the cells were solubilized with 1% SDS, and the bound ^3H-PGE2 quantitated by scintillation counting.

[2] = biological target: T2, cynomolgus macaque prostaglandin receptor EP4 (cynEP4) (Macaca fascicularis, UniProt Q95J39); test: Competition binding with 3H-PGE2 on CHO-K1 cells transiently transfected with cynomolgus macaque EP4; conditions: for IC50: cynEP4 transfected CHO-K1 whole cells, 3 nM 3H-PGE2, 1 hr on ice, read-out: IC50, displacement of 3H-PGE2 binding
Description: Each indicated concentration of (▪) PGE2, (♦) EP4SL, (▴) butaprost, or (●) sulprostone was incubated with three wells of a 24-well dish of CHO cells transiently transfected with cynEP4 for 1 hr on ice in the presence of 3 nM ^3H-PGE2. Following washing and solubilization of the cells, specific binding was determined by scintillation counting.
as §5
CHO cells transiently transfected with the baboon EP4 or cynomolgus macaque EP4 receptor were plated at 60,000 cells/well in 24-well tissue-culture dishes (Corning, Corning, N.Y.) and allowed to grow for 48 hours. Whole cell binding reactions (0.2 ml per well) containing 3 nM ^3H-PGE2 plus unlabeled competitor (10^−5 to 10^−10 M) were performed on ice for 1 hr. Unbound radioligand was removed by extensive washing, the cells were solubilized with 1% SDS, and the bound ^3H-PGE2 quantitated by scintillation counting.

[3] = biological target: T1, baboon prostaglandin receptor EP4 (baEP4); test: cAMP accumulation (SPA) in CHO cells transiently transfected with baboon EP4; assay type: cell-based; conditions: 12 minutes treatment, IBMX present
Description: (§1) FIG. 6 provides characterization of secondary signaling in CHO cells expressing baboon prostaglandin receptor EP4. An SPA assay was performed on CHO cells transiently transfected with baboon EP4 following treatment for 12 minutes with either (▪) PGE2 or the EP4 specific ligand (●) EP4SL. Error bars represent one standard deviation.
(§2) Secondary signaling in CHO cells expressing baEP4 or cynEP4 was measured by cAMP accumulation. CHO cells transiently transfected with baEP4 or cynEP4 were treated for 12 minutes with various concentrations of PGE2 in the presence of 2 mM IBMX. Accumulation of intracellular cAMP was measured at the end of the treatment period by use of a commercially available scintillation proximity assay (SPA) kit (Amersham, Arlington Heights, Ill.).
(§3) The day prior to transfection, CHO—K1 cells were plated in 100 mm dishes (Corning, Corning, N.Y.) at 6×10^4 cells/cm^2 in DMEM/F12 (Life Technologies) supplemented with 10% fetal calf serum (FCS; Gemini Bio-Products, Calabasas, Calif.). […]
(§4) To measure stimulation of cAMP production, CHO cells transiently transfected with the baboon EP4 or cynomolgus macaque EP4 receptor were plated at 20,000 cells/well in poly-D lysine coated 96-well tissue-culture plates (Becton-Dickinson, Franklin Lakes, N.J.) and allowed to grow for 72 hours. […] Assay plates were then counted in a Wallac Trilux counter (Perkin Elmer, Boston, Mass.).

[4] = biological target: T2, cynomolgus macaque prostaglandin receptor EP4 (cynEP4); test: cAMP accumulation (SPA) in CHO cells transiently transfected with cynomolgus macaque EP4; assay type: cell-based; conditions: 12 minutes treatment, IBMX present
Description: as §1, with “7” for “6”, “cynomolgus macaque” for “baboon”, “cynEP4” for “baboon EP4”
as §2, §3, §4

parental CHO—K1 cells = test: cAMP levels in parental CHO-K1 cells; assay type: cell-based, Chinese hamster; conditions: parental (untransfected) CHO-K1 cells

T1 sequence (Q7JGJ7 entry or part of it): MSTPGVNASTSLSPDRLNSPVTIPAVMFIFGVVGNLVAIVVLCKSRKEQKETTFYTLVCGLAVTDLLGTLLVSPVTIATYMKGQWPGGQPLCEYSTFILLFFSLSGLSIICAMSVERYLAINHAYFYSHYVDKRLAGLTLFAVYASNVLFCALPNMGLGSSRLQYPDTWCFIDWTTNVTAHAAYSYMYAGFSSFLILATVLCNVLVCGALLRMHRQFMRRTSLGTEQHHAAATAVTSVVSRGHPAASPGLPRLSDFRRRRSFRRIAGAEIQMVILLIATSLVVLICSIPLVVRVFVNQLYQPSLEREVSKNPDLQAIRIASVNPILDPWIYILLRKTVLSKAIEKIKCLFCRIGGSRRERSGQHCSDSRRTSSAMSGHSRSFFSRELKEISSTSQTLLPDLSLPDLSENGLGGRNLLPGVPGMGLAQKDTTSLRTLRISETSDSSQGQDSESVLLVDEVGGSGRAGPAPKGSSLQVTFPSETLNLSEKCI
T2 sequence (Q95J39 entry or part of it): as the sequence (Q7JGJ7 entry or part of it) above

| Structure (SMILES) | IC50 [1] | IC50 [2] | EC50 [3] | EC50 [4] | increased levels of cAMP, result in words (parental CHO—K1 cells) | binding to the receptor (competition with 3H-PGE2), result in words ([1]; baEP4 transfected CHO-K1 cells, competitor 10^-5 to 10^-10 M) | binding to the receptor (competition with 3H-PGE2), result in words ([2]; cynEP4 transfected CHO-K1 cells, competitor 10^-5 to 10^-10 M) |
| --- | --- | --- | --- | --- | --- | --- | --- |
| O=C(O)CCCCCCN1C(=O)CCC1CCC(O)Cc1ccccc1 (stereo not drawn) [EP4SL, 7-[2-(3-hydroxy-4-phenyl-butyl)-5-oxo-pyrrolidin-1-yl]-heptanoic acid] | 0.361 µM | 0.3 µM | 0.872 µM | 0.56 µM | not in parental CHO—K1 cells | – | – |
| CCCCC[C@H](O)/C=C/[C@H]1[C@H](O)CC(=O)[C@@H]1C/C=C\CCCC(=O)O [PGE2, Prostaglandin E2] | 0.0026 µM | 0.0025 µM | 0.0224 µM | 0.0089 µM | not in parental CHO—K1 cells | – | – |
| CCCC1([C@H](O)C/C=C/[C@H]2[C@H](O)CC(=O)[C@@H]2CCCCCCC(=O)OC)CCC1 [butaprost] | – | – | – | – | – | did not bind | did not bind |
